Where two headings read alike, the source gives them in different places.
Columns and labels:
[1] = target: T1, EML4-ALK (Homo sapiens, UniProt Q9UM73); experiment: EML4-ALK HiBit degradation assay in CRISPR-tagged H3122 cells (Nano-Glo HiBit Lytic Detection); format: cell-based
T1 construct: endogenous in cells; host or cells: H3122 (NSCLC), single-cell clone after CRISPR knock-in of HiBit; the other entry of the earlier key: EML4 (Q9HC35, Echinoderm microtubule-associated protein-like 4)
Method: (§1) NSCLC cell line H3122 was subjected to CRISPR to express EML4-ALK with HiBit-tag on its c-terminal. Single-cell clone was selected and expanded for the following assays that monitor endogenous EML4-ALK level in high throughput manner. Cells were seeded in 384-well white Tissue-culture plates at 3000 cells/well for 8 hours. […] HiBit signal was assessed using Nano-Glo® HiBit Lytic Detection System (Promega™). Degrader-treated was normalized by DMSO-treated controls and DC50 and Dmax were generated by GraphPad Prism® 8.0.
as §1, with “its c-terminus. A single-cell” for “its c-terminal. Single-cell”, “Degrader-treated cells were” for “Degrader-treated was”
as §1, with “its C-terminus. A single-cell” for “its c-terminal. Single-cell”, “Degrader-treated cells were” for “Degrader-treated was”

[2] = system: H3122 cells; experiment: CTG; format: cell-based; settings: Homo sapiens, NCI-H3122, read-out: CTG IC50
[3] = NCI-H3122, Table 1, first Dmax column, H3122 EML4-ALK-HiBit, 16 hours, read-out: Degradation Dmax
[4] = NCI-H3122, Table 1, second Dmax column, H3122 EML4-ALK-HiBit, 16 hours, read-out: Degradation Dmax
[5] = NCI-H3122, Table 1, average Dmax, read-out: Degradation Avg. Dmax
[6] = Table 1, first DC50 column, H3122 EML4-ALK-HiBit, 16 hours, read-out: Degradation DC50
[7] = Table 1, second DC50 column, H3122 EML4-ALK-HiBit, 16 hours, read-out: Degradation DC50
[8] = Table 1, average DC50, read-out: Degradation Avg. DC50

T1 sequence (Q9UM73 with tags, fused parts or gaps): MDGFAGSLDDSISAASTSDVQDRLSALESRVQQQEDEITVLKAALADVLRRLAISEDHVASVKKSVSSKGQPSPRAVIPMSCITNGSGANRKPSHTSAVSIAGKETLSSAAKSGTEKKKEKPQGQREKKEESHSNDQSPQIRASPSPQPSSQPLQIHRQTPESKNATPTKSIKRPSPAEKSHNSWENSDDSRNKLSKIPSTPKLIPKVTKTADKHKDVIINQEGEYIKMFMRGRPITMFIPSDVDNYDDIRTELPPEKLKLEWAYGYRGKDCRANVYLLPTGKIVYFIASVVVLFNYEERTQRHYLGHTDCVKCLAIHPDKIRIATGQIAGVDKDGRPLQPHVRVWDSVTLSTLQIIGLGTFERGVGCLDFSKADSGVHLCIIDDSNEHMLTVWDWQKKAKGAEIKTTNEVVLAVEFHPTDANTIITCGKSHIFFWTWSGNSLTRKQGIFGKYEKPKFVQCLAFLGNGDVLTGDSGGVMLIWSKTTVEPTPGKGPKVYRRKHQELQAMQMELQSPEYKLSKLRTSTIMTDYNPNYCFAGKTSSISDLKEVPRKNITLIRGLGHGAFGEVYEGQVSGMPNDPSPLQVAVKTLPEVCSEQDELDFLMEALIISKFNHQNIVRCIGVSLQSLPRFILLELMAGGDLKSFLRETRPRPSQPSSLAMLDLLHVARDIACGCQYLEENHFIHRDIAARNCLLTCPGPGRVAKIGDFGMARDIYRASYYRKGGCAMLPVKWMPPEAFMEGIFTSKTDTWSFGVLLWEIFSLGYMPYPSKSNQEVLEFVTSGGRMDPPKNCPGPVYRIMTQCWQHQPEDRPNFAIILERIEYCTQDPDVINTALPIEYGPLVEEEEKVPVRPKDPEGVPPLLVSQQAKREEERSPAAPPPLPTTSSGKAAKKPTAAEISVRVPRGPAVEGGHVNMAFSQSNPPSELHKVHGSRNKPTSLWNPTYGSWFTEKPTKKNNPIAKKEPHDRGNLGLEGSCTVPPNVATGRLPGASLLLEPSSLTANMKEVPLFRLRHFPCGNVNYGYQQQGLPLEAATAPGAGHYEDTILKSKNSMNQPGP

Row | Structure (SMILES) | Dmax [1, 3] | Dmax [1, 4] | Dmax [1, 5] | DC50 [1, 6] | DC50 [1, 7] | DC50 [1, 8] | IC50 ([2]; Table 1) | Dmax ([1]; NCI-H3122, Table 2, first Dmax column, H3122 EML4-ALK-HiBit, 16 hours, read-out: Degradation Dmax) | Dmax ([1]; NCI-H3122, Table 2, second Dmax column, H3122 EML4-ALK-HiBit, 16 hours, read-out: Degradation Dmax) | Dmax ([1]; NCI-H3122, Table 2, average Dmax, read-out: Degradation Avg. Dmax) | DC50 ([1]; Table 2, first DC50 column, H3122 EML4-ALK-HiBit, 16 hours, read-out: Degradation DC50) | DC50 ([1]; Table 2, second DC50 column, H3122 EML4-ALK-HiBit, 16 hours, read-out: Degradation DC50) | DC50 ([1]; Table 2, average DC50, read-out: Degradation Avg. DC50) | IC50 ([2]; Table 2)
1 | COc1cc(CCN(C)C(=O)CCCC#Cc2cccc3c2C(=O)N(C2CCC(=O)NC2=O)C3=O)c(C)cc1Nc1ncc(Cl)c(Nc2ccccc2S(=O)(=O)C(C)C)n1 (centres unmarked) [compound 9, N-(4-((5-chloro-4-((2-(isopropylsulfonyl)phenyl)amino)pyrimidin-2-yl)amino)-5-methoxy-2-methylphenethyl)-6-(2-(2,6-dioxopiperidin-3-yl)-1,3-dioxoisoindolin-4-yl)-N-methylhex-5-ynamide] | 54.1% | – | 54.1% | 265 nM | – | 265 nM | 122 nM | – | – | – | – | – | – | –
2 | COc1cc(CCN(C)C(=O)CCOCCOCCNC(=O)COc2cccc3c2C(=O)N(C2CCC(=O)NC2=O)C3=O)c(C)cc1Nc1ncc(Cl)c(Nc2ccccc2S(=O)(=O)C(C)C)n1 (centres unmarked) [compound 8, N-(4-((5-chloro-4-((2-(isopropylsulfonyl)phenyl)amino)pyrimidin-2-yl)amino)-5-methoxy-2-methylphenethyl)-3-(2-(2-(2-((2-(2,6-dioxopiperidin-3-yl)-1,3-dioxoisoindolin-4-yl)oxy)acetamido)ethoxy)ethoxy)-N-methylpropanamide] | 44.3% | – | 44.8% | 171 nM | – | 171 nM | 75 nM | – | – | – | – | – | – | –
3 | COc1cc(CCNCCCCCCCC(=O)N[C@H](C(=O)N2C[C@H](O)C[C@H]2C(=O)N[C@@H](C)c2ccc(-c3scnc3C)cc2)C(C)(C)C)c(C)cc1Nc1ncc(Cl)c(Nc2ccccc2S(=O)(=O)C(C)C)n1 [Compound 45] | 51% | – | 51% | 390 nM | – | 390 nM | 106 nM | – | – | – | – | – | – | –
4 | COc1cc(CCN(C)C(=O)CCOCCOCCNc2cccc3c2C(=O)N(C2CCC(=O)NC2=O)C3=O)c(C)cc1Nc1ncc(Cl)c(Nc2ccccc2S(=O)(=O)C(C)C)n1 (centres unmarked) [compound 4, N-(4-((5-chloro-4-((2-(isopropylsulfonyl)phenyl)amino)pyrimidin-2-yl)amino)-5-methoxy-2-methylphenethyl)-3-(2-(2-((2-(2,6-dioxopiperidin-3-yl)-1,3-dioxoisoindolin-4-yl)amino)ethoxy)ethoxy)-N-methylpropanamide] | 44.8% | 33% | 38.9% | 100 nM | 34 nM | 67 nM | 25.1 nM | – | – | – | – | – | – | –
5 | COc1cc(CCNCCOCCOCCOCCC(=O)N[C@H](C(=O)N2C[C@H](O)C[C@H]2C(=O)N[C@@H](C)c2ccc(-c3scnc3C)cc2)C(C)(C)C)c(C)cc1Nc1ncc(Cl)c(Nc2ccccc2S(=O)(=O)C(C)C)n1 [Compound 47] | 81.9% | 95.6% | 88.7% | 1100 nM | 347 nM | 723 nM | 285 nM | – | – | – | – | – | – | –

Further lines, results first:

Row | Dmax [1, 3] | Dmax [1, 4] | Dmax [1, 5] | DC50 [1, 6] | DC50 [1, 7] | DC50 [1, 8] | IC50 ([2]; Table 1) | Dmax ([1]; NCI-H3122, Table 2, first Dmax column, H3122 EML4-ALK-HiBit, 16 hours, read-out: Degradation Dmax) | Dmax ([1]; NCI-H3122, Table 2, second Dmax column, H3122 EML4-ALK-HiBit, 16 hours, read-out: Degradation Dmax) | Dmax ([1]; NCI-H3122, Table 2, average Dmax, read-out: Degradation Avg. Dmax) | DC50 ([1]; Table 2, first DC50 column, H3122 EML4-ALK-HiBit, 16 hours, read-out: Degradation DC50) | DC50 ([1]; Table 2, second DC50 column, H3122 EML4-ALK-HiBit, 16 hours, read-out: Degradation DC50) | DC50 ([1]; Table 2, average DC50, read-out: Degradation Avg. DC50) | IC50 ([2]; Table 2) | Structure (SMILES)
6 | 34% | 30.4% | 32.2% | 124 nM | 266 nM | 195 nM | 11.6 nM | – | – | – | – | – | – | – | COc1cc(CCN(C)C(=O)CCCCCNC(=O)COc2cccc3c2C(=O)N(C2CCC(=O)NC2=O)C3=O)c(C)cc1Nc1ncc(Cl)c(Nc2ccccc2S(=O)(=O)C(C)C)n1 (centres unmarked) [compound 6, N-(4-((5-chloro-4-((2-(isopropylsulfonyl)phenyl)amino)pyrimidin-2-yl)amino)-5-methoxy-2-methylphenethyl)-6-(2-((2-(2,6-dioxopiperidin-3-yl)-1,3-dioxoisoindolin-4-yl)oxy)acetamido)-N-methylhexanamide]
7 | – | – | – | – | – | – | – | 37.9% | 37.9% | 37.9% | 8820 nM | 3590 nM | 6200 nM | 2950 nM | COc1cc(CCNCCCC(=O)N[C@H](C(=O)N2C[C@H](O)C[C@H]2C(=O)N[C@@H](C)c2ccc(-c3scnc3C)cc2)C(C)(C)C)c(C)cc1Nc1ncc(Cl)c(Nc2ccccc2P(C)(C)=O)n1 [Compound 72]
8 | 58% | 34.5% | 51.3% | 1390 nM | 206 nM | 801 nM | 316 nM | – | – | – | – | – | – | – | COc1cc(CCNCCOCCOCCC(=O)N[C@H](C(=O)N2C[C@H](O)CC2C(=O)N[C@@H](C)c2ccc(-c3scnc3C)cc2)C(C)(C)C)c(C)cc1Nc1ncc(Cl)c(Nc2ccccc2S(=O)(=O)C(C)C)n1 (some centres unmarked) [Compound 46]

From patent US20230158157A1, “POTENT AND SELECTIVE DEGRADERS OF ALK” (DANA-FARBER CANCER INSTITUTE, INC., priority 2020, published 2023)
